From patent US9328099B2, “Cyanomethylpyrazole carboxamides as janus kinase inhibitors” (Merck Sharp & Dohme Corp., priority 2011, dated 2016) come the findings set out here.

The target in experiment [1] is JAK1 (Homo sapiens (Human), UniProt P23458). Description: Jak Biochemical HTRF Assay, JAK1. The following applies: HTRF biochemical assay, GST-tagged catalytic domain; top concentration tested […]; read-out: JAK1 IC50. From the text:
(§1) Jak Biochemical HTRF Assay Protocol
(§2) Subsequent reagent additions employed an Agilent Bravo.
In general terms: In TR-FRET formats the signal depends on donor and acceptor labels being close together.

In experiment [2] the target is JAK2 (Homo sapiens (Human), UniProt O60674). As to the kind of experiment: Jak Biochemical HTRF Assay, JAK2. The settings on record: HTRF biochemical assay, GST-tagged catalytic domain; top concentration tested […].
Sequence of JAK2 (O60674 849-1124): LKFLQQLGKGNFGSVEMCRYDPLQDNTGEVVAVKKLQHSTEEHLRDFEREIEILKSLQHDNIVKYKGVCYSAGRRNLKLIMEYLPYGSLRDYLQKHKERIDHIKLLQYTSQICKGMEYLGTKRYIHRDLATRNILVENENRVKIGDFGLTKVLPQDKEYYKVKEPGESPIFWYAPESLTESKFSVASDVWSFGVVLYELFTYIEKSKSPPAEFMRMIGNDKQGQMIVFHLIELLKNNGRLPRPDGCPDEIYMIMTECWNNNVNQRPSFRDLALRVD
Text: as §1, §2

Sequence of JAK1 (P23458 875-1153): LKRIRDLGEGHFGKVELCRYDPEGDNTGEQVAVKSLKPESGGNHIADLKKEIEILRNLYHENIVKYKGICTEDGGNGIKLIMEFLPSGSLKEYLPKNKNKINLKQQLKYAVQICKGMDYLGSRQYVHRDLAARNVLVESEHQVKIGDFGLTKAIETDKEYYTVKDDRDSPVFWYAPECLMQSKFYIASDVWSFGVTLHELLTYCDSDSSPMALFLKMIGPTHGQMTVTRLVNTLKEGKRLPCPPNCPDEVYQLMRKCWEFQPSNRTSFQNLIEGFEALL

Take `N#CCC1(n2cc(C(N)=O)c(Nc3ccnc(F)c3)n2)CCN(Cc2ncco2)CC1` [Example 22-28, 1-[4-(cyanomethyl)-1-(1,3-oxazol-2-ylmethyl)piperidin-4-yl]-3-[(2-fluoropyridin-4-yl)amino]-1H-pyrazole-4-carboxamide]: the values for the half-maximal inhibitory concentration (IC50) in experiment [1] and in experiment [2] were 3 nM and 73 nM, respectively.

As to `Cn1nccc1CN1CCC(CC#N)(n2cc(C(N)=O)c(Nc3ccnc(F)c3)n2)CC1` [Example 22-29, 1-{4-(cyanomethyl)-1-[(1-methyl-1H-pyrazol-5-yl)methyl]piperidin-4-yl}-3-[(2-fluoropyridin-4-yl)amino]-1H-pyrazole-4-carboxamide], the IC50 – broadly, the concentration that inhibits the measured activity by half – in experiment [1] was found to be 2 nM; in experiment [2] it was 37 nM.

On to `Cn1ccc(CN2CCC(CC#N)(n3cc(C(N)=O)c(Nc4ccnc(F)c4)n3)CC2)n1` [Example 22-30, 1-{4-(cyanomethyl)-1-[(1-methyl-1H-pyrazol-3-yl)methyl]piperidin-4-yl}-3-[(2-fluoropyridin-4-yl)amino]-1H-pyrazole-4-carboxamide], for which the half-maximal inhibitory concentration (IC50) was 86 nM in experiment [1] and above 1500 nM in experiment [2].

As to `N#CCC1(n2cc(C(N)=O)c(Nc3ccnc(F)c3)n2)CCN(Cc2ccon2)CC1` [Example 22-31, 1-[4-(cyanomethyl)-1-(isoxazol-3-ylmethyl)piperidin-4-yl]-3-[(2-fluoropyridin-4-yl)amino]-1H-pyrazole-4-carboxamide], the results for the half-maximal inhibitory concentration (IC50) in experiment [1] and in experiment [2] were 1 nM and 47 nM, respectively.

For `N#CCC1(n2cc(C(N)=O)c(Nc3ccnc(F)c3)n2)CCN(Cc2cccc(F)n2)CC1` [Example 22-32, 1-{4-(cyanomethyl)-1-[(6-fluoropyridin-2-yl)methyl]piperidin-4-yl}-3-[(2-fluoropyridin-4-yl)amino]-1H-pyrazole-4-carboxamide], the IC50 in experiment [1] was found to be 2 nM; in experiment [2] it was 83 nM.

On to `N#CCC1(n2cc(C(N)=O)c(Nc3ccnc(F)c3)n2)CCN(Cc2cccc3ccnn23)CC1` [Example 22-33, 1-[4-(cyanomethyl)-1-(pyrazolo[1,5-a]pyridin-7-ylmethyl)piperidin-4-yl]-3-[(2-fluoropyridin-4-yl)amino]-1H-pyrazole-4-carboxamide], for which the IC50 stood at 2 nM in experiment [1] and 81 nM in experiment [2].

Take `N#CCC1(n2cc(C(N)=O)c(Nc3ccnc(F)c3)n2)CCN(Cc2cc3ccccn3n2)CC1` [Example 22-34, 1-[4-(cyanomethyl)-1-(pyrazolo[1,5-a]pyridin-2-ylmethyl)piperidin-4-yl]-3-[(2-fluoropyridin-4-yl)amino]-1H-pyrazole-4-carboxamide]: the half-inhibitory concentration (IC50) was found to be 8 nM in experiment [1] and 163 nM in experiment [2].

`N#CCC1(n2cc(C(N)=O)c(Nc3ccnc(F)c3)n2)CCN(Cc2cccnn2)CC1` [Example 22-35, 1-[4-(cyanomethyl)-1-(pyridazin-3-ylmethyl)piperidin-4-yl]-3-[(2-fluoropyridin-4-yl)amino]-1H-pyrazole-4-carboxamide]: the half-inhibitory concentration (IC50) in experiment [1] was 6 nM; in experiment [2], 145 nM.

On to `N#CCC1(n2cc(C(N)=O)c(Nc3ccnc(F)c3)n2)CCN(Cc2ccc(F)cn2)CC1` [Example 22-36, 1-{4-(cyanomethyl)-1-[(5-fluoropyridin-2-yl)methyl]piperidin-4-yl}-3-[(2-fluoropyridin-4-yl)amino]-1H-pyrazole-4-carboxamide], for which the IC50 in experiment [1] was 2 nM; in experiment [2], 97 nM.

`COC1CC(CN2CCC(CC#N)(n3cc(C(N)=O)c(Nc4ccnc(F)c4)n3)CC2)C1` (stereo not drawn) [Example 22-37, 1-{4-(cyanomethyl)-1-[(3-methoxycyclobutyl)methyl]piperidin-4-yl}-3-[(2-fluoropyridin-4-yl)amino]-1H-pyrazole-4-carboxamide]: the IC50 in experiment [1] is 88 nM; in experiment [2], above 1500 nM.

Regarding `N#CCC1(n2cc(C(N)=O)c(Nc3ccnc(F)c3)n2)CCN(Cc2cncc(F)c2)CC1` [Example 22-38, 1-{4-(cyanomethyl)-1-[(5-fluoropyridin-3-yl)methyl]piperidin-4-yl}-3-[(2-fluoropyridin-4-yl)amino]-1H-pyrazole-4-carboxamide], the IC50 in experiment [1] came to 0.2 nM; in experiment [2], 5 nM.

For the compound `N#CCC1(n2cc(C(N)=O)c(Nc3ccnc(F)c3)n2)CCN(Cc2cc3ccccc3[nH]2)CC1` [Example 22-39, 1-[4-(cyanomethyl)-1-(1H-indol-2-ylmethyl)piperidin-4-yl]-3-[(2-fluoropyridin-4-yl)amino]-1H-pyrazole-4-carboxamide], the half-maximal inhibitory concentration (IC50) came to 0.2 nM in experiment [1] and 14 nM in experiment [2].

Consider `Cc1c(CN2CCC(CC#N)(n3cc(C(N)=O)c(Nc4ccnc(F)c4)n3)CC2)cnn1C` [Example 22-40, 1-{4-(cyanomethyl)-1-[(1,5-dimethyl-1H-pyrazol-4-yl)methyl]piperidin-4-yl}-3-[(2-fluoropyridin-4-yl)amino]-1H-pyrazole-4-carboxamide], for which the concentration for half-maximal inhibition (IC50) is 23 nM in experiment [1] and 582 nM in experiment [2].

For the compound `N#CCC1(n2cc(C(N)=O)c(Nc3ccnc(F)c3)n2)CCN(Cc2nc3ccccc3[nH]2)CC1` [Example 22-41, 1-[1-(1H-benzimidazol-2-ylmethyl)-4-(cyanomethyl)piperidin-4-yl]-3-[(2-fluoropyridin-4-yl)amino]-1H-pyrazole-4-carboxamide], the IC50 in experiment [1] is 18 nM; in experiment [2] it was 641 nM.

`CC1=NOC(CN2CCC(CC#N)(n3cc(C(N)=O)c(Nc4ccnc(F)c4)n3)CC2)C1` (stereo not drawn) [Example 22-42, 1-{4-(cyanomethyl)-1-[(3-methyl-4,5-dihydroisoxazol-5-yl)methyl]piperidin-4-yl}-3-[(2-fluoropyridin-4-yl)amino]-1H-pyrazole-4-carboxamide]: the figures for the IC50 in experiment [1] and in experiment [2] were 18 nM and 582 nM, respectively.

On to `N#CCC1(n2cc(C(N)=O)c(Nc3ccc(F)cc3)n2)CCN(Cc2cc3ccccc3[nH]2)CC1` [Example 22-43, 1-[4-(cyanomethyl)-1-(1H-indol-2-ylmethyl)piperidin-4-yl]-3-[(4-fluorophenyl)amino]-1H-pyrazole-4-carboxamide], for which the concentration for half-maximal inhibition (IC50) in experiment [1] was determined as 1 nM; in experiment [2], 64 nM.

For the compound `Cc1cnc(F)c(CN2CCC(CC#N)(n3cc(C(N)=O)c(Nc4ccc(F)cc4)n3)CC2)c1` [Example 22-44, 1-{4-(cyanomethyl)-1-[(2-fluoro-5-methylpyridin-3-yl)methyl]piperidin-4-yl}-3-[(4-fluorophenyl)amino]-1H-pyrazole-4-carboxamide], the IC50 stood at 5 nM in experiment [1] and 22 nM in experiment [2].

Consider `N#CCC1(n2cc(C(N)=O)c(Nc3ccc(F)cc3)n2)CCN(Cc2ccon2)CC1` [Example 22-45, 1-[4-(cyanomethyl)-1-(isoxazol-3-ylmethyl)piperidin-4-yl]-3-[(4-fluorophenyl)amino]-1H-pyrazole-4-carboxamide], for which the half-maximal inhibitory concentration (IC50) in experiment [1] was 2 nM; in experiment [2], 34 nM.

On to `N#CCC1(n2cc(C(N)=O)c(Nc3ccc(F)cc3)n2)CCN(Cc2cccc(F)n2)CC1` [Example 22-46, 1-{4-(cyanomethyl)-1-[(6-fluoropyridin-2-yl)methyl]piperidin-4-yl}-3-[(4-fluorophenyl)amino]-1H-pyrazole-4-carboxamide], for which the figures for the half-inhibitory concentration (IC50) in experiment [1] and in experiment [2] were 3 nM and 95 nM, respectively.

In the case of `N#CCC1(n2cc(C(N)=O)c(Nc3ccc(F)cc3)n2)CCN(Cc2cccnn2)CC1` [Example 22-47, 1-[4-(cyanomethyl)-1-(pyridazin-3-ylmethyl)piperidin-4-yl]-3-[(4-fluorophenyl)amino]-1H-pyrazole-4-carboxamide], the IC50 in experiment [1] was found to be 6 nM; in experiment [2] it was 100 nM.

Turning to `N#CCC1(n2cc(C(N)=O)c(Nc3ccc(F)cc3)n2)CCN(Cc2ccc(F)cn2)CC1` [Example 22-48, 1-{4-(cyanomethyl)-1-[(5-fluoropyridin-2-yl)methyl]piperidin-4-yl}-3-[(4-fluorophenyl)amino]-1H-pyrazole-4-carboxamide], the 50% inhibitory concentration (IC50) in experiment [1] came to 2 nM; in experiment [2], 73 nM.

For the compound `N#CCC1(n2cc(C(N)=O)c(Nc3ccc(F)cc3)n2)CCN(Cc2cncc(F)c2)CC1` [Example 22-49, 1-{4-(cyanomethyl)-1-[(5-fluoropyridin-3-yl)methyl]piperidin-4-yl}-3-[(4-fluorophenyl)amino]-1H-pyrazole-4-carboxamide], the values for the IC50 in experiment [1] and in experiment [2] were 2 nM and 29 nM, respectively.

For the compound `N#CCC1(n2cc(C(N)=O)c(Nc3ccc(F)cc3)n2)CCN(Cc2cc(F)ccn2)CC1` [Example 22-50, 1-{4-(cyanomethyl)-1-[(4-fluoropyridin-2-yl)methyl]piperidin-4-yl}-3-[(4-fluorophenyl)amino]-1H-pyrazole-4-carboxamide], the results for the IC50 in experiment [1] and in experiment [2] were 0.6 nM and 16 nM, respectively.

`N#CCC1(n2cc(C(N)=O)c(Nc3ccc(F)cc3)n2)CCN(Cc2cccnc2)CC1` [Example 22-51, 1-[4-(cyanomethyl)-1-(pyridin-3-ylmethyl)piperidin-4-yl]-3-[(4-fluorophenyl)amino]-1H-pyrazole-4-carboxamide]: the values for the concentration for half-maximal inhibition (IC50) in experiment [1] and in experiment [2] were 0.4 nM and 9 nM, respectively.

As to `N#CCC1(n2cc(C(N)=O)c(Nc3ccc(F)cc3)n2)CCN(Cc2cnccn2)CC1` [Example 22-52, 1-[4-(cyanomethyl)-1-(pyrazin-2-ylmethyl)piperidin-4-yl]-3-[(4-fluorophenyl)amino]-1H-pyrazole-4-carboxamide], the IC50 is 1 nM in experiment [1] and 25 nM in experiment [2].

For the compound `N#CCC1(n2cc(C(N)=O)c(Nc3ccc(F)cc3)n2)CCN(Cc2ccnc3[nH]ccc23)CC1` [Example 22-53, 1-[4-(cyanomethyl)-1-(1H-pyrrolo[2,3-b]pyridin-4-ylmethyl)piperidin-4-yl]-3-[(4-fluorophenyl)amino]-1H-pyrazole-4-carboxamide], the 50% inhibitory concentration (IC50) was determined as 4 nM in experiment [1] and 87 nM in experiment [2].

Turning to `N#CCC1(n2cc(C(N)=O)c(Nc3ccc(F)cc3)n2)CCN(Cc2ccco2)CC1` [Example 22-54, 1-[4-(cyanomethyl)-1-(furan-2-ylmethyl)piperidin-4-yl]-3-[(4-fluorophenyl)amino]-1H-pyrazole-4-carboxamide], the 50% inhibitory concentration (IC50) in experiment [1] was found to be 1 nM; in experiment [2] it was 28 nM.
